In US5330743A, “Aminosaccharide contrast agents for magnetic resonance images” (Magnetic Research, Inc., priority 1992, dated 1994):
Read-outs that look alike come from different tables or passages of the source.

What was measured:
[1] = for time at which contrast enhancement of liver was well demonstrated: after contrast injection
Procedure: New Zealand White rabbits were used for all magnetic resonance imaging (MRI) experiments. A General Electric 1.5 Tesla system was used with the knee coil. T1W spin echo images were obtained every 10 minutes following contrast injection. Data points were taken as the time at the end of the scan. Each data point was measured in triplicate with sample signal intensities taken from the liver, kidney, and muscle. TR=750 msec. TE=37 msec. NEX=4. Flow compensation was used. Sedation was performed by using an initial injection of intramuscular ketamine at 110 mg/kg and pentobarbital intravenously at 2.2 cc/kg. Sedation was maintained with intermittent pentobarbital injections as needed at 1 cc/kg.
Two rabbits were given gadolinium DTPA bis-glucosamide at 0.1 mM/kg intravenously. MR images were taken before and after the injection of the contrast agent.
MR images were taken before and after the injection of contrast agent.
Gadolinium DTPA bis-pyriodoxamide was given intravenously at 0.1 mM/kg. MR images were taken before and after the injection of contrast agent.
Comparison is made with two animals which were given Gd DTPA (Schering A. G., Berlin, Germany) 0.1 mM/kg intravenously.

[2] = MR contrast enhancement of kidney in rabbits (T1W spin echo, 1.5 Tesla); assay type: in vivo, New Zealand White rabbits; settings: 0.1 mM/kg intravenously; for time at which contrast enhancement of kidney was well demonstrated: after contrast injection
Text: (§1) TR=750 msec. TE=37 msec. NEX=4. Flow compensation was used.

[3] = MR contrast enhancement of muscle in rabbits (T1W spin echo, 1.5 Tesla); assay type: in vivo, New Zealand White rabbits; settings: 0.1 mM/kg intravenously
Text: as §1

[4] = 11 min. P.I., 0.1 mM/kg intravenously
[5] = 21 min. P.I., 0.1 mM/kg intravenously
[6] = 31 min. P.I., 0.1 mM/kg intravenously
[7] = 44 min. P.I., 0.1 mM/kg intravenously
[8] = 54 min. P.I., 0.1 mM/kg intravenously
[9] = 64 min. P.I., 0.1 mM/kg intravenously
[10] = 76 min. P.I., 0.1 mM/kg intravenously
[11] = Pre-Contrast, 0.1 mM/kg intravenously
[12] = 85 min. P.I., 0.1 mM/kg intravenously

Compound | contrast enhancement, liver composite (av of 3) [1, 4] | contrast enhancement, liver composite (av of 3) [1, 5] | contrast enhancement, liver composite (av of 3) [1, 6] | contrast enhancement, liver composite (av of 3) [1, 7] | contrast enhancement, liver composite (av of 3) [1, 8] | contrast enhancement, liver composite (av of 3) [1, 9] | contrast enhancement, liver composite (av of 3) [1, 10] | contrast enhancement, liver composite (av of 3) [1, 11] | time at which contrast enhancement of kidney was well demonstrated [2] | contrast enhancement, kidney composite (av of 3) ([2]; 11 min. P.I.) | contrast enhancement, kidney composite (av of 3) ([2]; 21 min. P.I.) | contrast enhancement, kidney composite (av of 3) ([2]; 31 min. P.I.) | contrast enhancement, kidney composite (av of 3) ([2]; 44 min. P.I.) | contrast enhancement, kidney composite (av of 3) ([2]; 54 min. P.I.) | contrast enhancement, kidney composite (av of 3) ([2]; 64 min. P.I.) | contrast enhancement, kidney composite (av of 3) ([2]; Pre-Contrast) | contrast enhancement, muscle composite (av of 3) ([3]; 11 min. P.I.) | contrast enhancement, muscle composite (av of 3) ([3]; 21 min. P.I.) | contrast enhancement, muscle composite (av of 3) ([3]; 31 min. P.I.) | contrast enhancement, muscle composite (av of 3) ([3]; Pre-Contrast) | other results
O=C([O-])CN(CCN(CC(=O)[O-])CC(=O)N[C@H]1C(O)O[C@H](CO)[C@@H](O)[C@@H]1O)CCN(CC(=O)[O-])CC(=O)N[C@H]1C(O)O[C@H](CO)[C@@H](O)[C@@H]1O.[Gd+3] (stereo partly shown) [Gd DTPA Bis-Glucosamide, gadolinium DTPA bis-glucosamide] | 17.157% | 14.172% | 11.053% | 7.390% | 9.910% | 3.151% | 1.750% | 0.000% | 11 min | 77.532% | 68.552% | 46.320% | 42.172% | 31.288% | 30.596% | 0.000% | 3.791% | -3.481% | -2.205% | 0.000% | course of contrast enhancement after maximum, liver ([1]; 0.1 mM/kg intravenously): decreased gradually; decrease in contrast, liver versus kidney ([1]; 0.1 mM/kg intravenously): slower in the liver than in the kidney; enhancement of the liver compared to Gd DTPA ([1]; 0.1 mM/kg intravenously): improved enhancement; time until which maximum contrast enhancement was maintained, liver ([1]; 0.1 mM/kg intravenously): 22 min; time at which contrast enhancement of liver was well demonstrated ([1]; 0.1 mM/kg intravenously): 11 min; course of contrast enhancement after maximum, kidney [2]: decreased gradually; enhancement of the kidney compared to Gd DTPA [2]: improved enhancement; time until which maximum contrast enhancement was maintained, kidney [2]: 22 min; contrast enhancement, kidney composite (av of 3) ([2]; 76 min. P.I.): 22.065%; contrast enhancement, muscle composite (av of 3) ([3]; 44 min. P.I.): -6.098%; contrast enhancement, muscle composite (av of 3) ([3]; 54 min. P.I.): -7.962%; contrast enhancement, muscle composite (av of 3) ([3]; 64 min. P.I.): -11.035%; contrast enhancement, muscle composite (av of 3) ([3]; 76 min. P.I.): -5.465%
Cc1ncc(CO)c(CNC(=O)CN(CCN(CCN(CC(=O)[O-])CC(=O)NCc2c(CO)cnc(C)c2O)CC(=O)[O-])CC(=O)[O-])c1O.[Gd+3] [Gd DTPA Bis-Pyridoxamide, Gadolinium DTPA bis-pyriodoxamide] | -4.567% | -4.805% | -3.018% | – | – | – | – | 0.000% | 11 min | 72.341% | 50.381% | 53.753% | – | – | – | 0.000% | 7.089% | 6.846% | -12.884% | 0.000% | liver enhancement (in words) ([1]; 0.1 mM/kg intravenously): negative liver enhancement; enhancement of the kidney compared to Gd DTPA [2]: improved renal enhancement; time of maximum contrast enhancement, kidney [2]: 11 min
O=C([O-])CN(CCN(CC(=O)[O-])CC(=O)N[C@H]1C(O)O[C@H](CO)[C@H](O)[C@@H]1O)CCN(CC(=O)[O-])CC(=O)N[C@H]1C(O)O[C@H](CO)[C@H](O)[C@@H]1O.[Gd+3] (stereo partly shown) [Gd DTPA Galactosamide, gadolinium DTPA galactosamide] | 21.943% | 13.116% | 15.632% | 11.724% | 13.202% | 8.360% | 11.639% | 0.000% | 11 min | 52.932% | 47.999% | 46.968% | 41.697% | 41.936% | 42.336% | 0.000% | 18.349% | 24.593% | 12.578% | 0.000% | course of contrast enhancement after maximum, liver ([1]; 0.1 mM/kg intravenously): decreased rapidly; enhancement of the liver compared to Gd DTPA ([1]; 0.1 mM/kg intravenously): improved enhancement; time of maximum contrast enhancement, liver ([1]; 0.1 mM/kg intravenously): 11 min; time at which contrast enhancement of liver was well demonstrated ([1]; 0.1 mM/kg intravenously): 11 min; contrast enhancement, liver composite (av of 3) [1, 12]: 15.451%; time at which contrast agent appears to have been cleared from the liver ([1]; rabbit, in vivo, iv): 76 min; course of contrast enhancement after maximum, kidney [2]: decreased very slowly; time of maximum contrast enhancement, kidney [2]: 22 min; contrast enhancement, kidney composite (av of 3) ([2]; 76 min. P.I.): 37.335%; contrast enhancement, kidney composite (av of 3) ([2]; 85 min. P.I.): 26.562%; enhancement of the muscle compared to Gd DTPA [3]: improved enhancement; contrast enhancement, muscle composite (av of 3) ([3]; 44 min. P.I.): 7.783%; contrast enhancement, muscle composite (av of 3) ([3]; 54 min. P.I.): 14.531%; contrast enhancement, muscle composite (av of 3) ([3]; 64 min. P.I.): 12.252%; contrast enhancement, muscle composite (av of 3) ([3]; 76 min. P.I.): -10.121%; contrast enhancement, muscle composite (av of 3) ([3]; 85 min. P.I.): -3.078%
O=C([O-])CN(CCN(CC(=O)[O-])CC(=O)[O-])CCN(CC(=O)[O-])CC(=O)[O-].[Gd+3] [Gd DTPA, gadolinium diethylene triamine pentaacetic acid complex, reference compound] | 4.822% | 0.852% | 6.132% | -2.041% | -2.714% | -1.063% | -0.232% | 0.000% | – | 52.456% | 40.275% | 28.971% | 29.243% | 28.405% | 27.052% | 0.000% | 12.981% | 6.801% | 2.020% | 0.000% | contrast enhancement, liver composite (av of 3) [1, 12]: -0.422%; contrast enhancement, kidney composite (av of 3) ([2]; 76 min. P.I.): 23.751%; contrast enhancement, kidney composite (av of 3) ([2]; 85 min. P.I.): 14.643%; contrast enhancement, muscle composite (av of 3) ([3]; 44 min. P.I.): -1.543%; contrast enhancement, muscle composite (av of 3) ([3]; 54 min. P.I.): -0.464%; contrast enhancement, muscle composite (av of 3) ([3]; 64 min. P.I.): -0.873%; contrast enhancement, muscle composite (av of 3) ([3]; 76 min. P.I.): -2.407%; contrast enhancement, muscle composite (av of 3) ([3]; 85 min. P.I.): -0.899%
